Test results: patent US20120225019A1, “Dual Fluorescence Assay For Determining Viability Of Parasitic Or Non-Parasitic Worms” (priority 2009, published 2012)
“Also recorded” adds a separate entry of the source. Where a name gives a salt, the structure may show the parent alone.

Experiments:
[1] = system: Schistosoma mansoni schistosomula; experiment: dual-fluorescence (PI/FDA) schistosomula viability assay; format: cell-based; settings: 10 μM, 24 hr
Method: Schistosoma mansoni (Puerto Rican strain) infected Biomphalaria glabrata snails were provided by Fred Lewis (Biomedical Research Institute, Rockville, Md., USA). Cercariae were shed from infected snails by exposure to light (60 min at room temperature, RT) and subsequently converted to schistosomula by mechanical transformation (Colley D G, Wikel S K (1974) Schistosoma mansoni: simplified method for the production of schistosomules. Experimental Parasitology 35: 44-51). Schistosomula were purified away from cercarial tails by centrifugation through a 60% percoll gradient (Lazdins J K, Stein M J, David J R, Sher A (1982) Schistosoma mansoni: rapid isolation and purification of schistosomula of different developmental stages by centrifugation on discontinuous density gradients of Percoli. Experimental Parasitology 53: 39).
Microscope examination was used to assess the quantity and quality of purified schistosomula. Schistosomula were cultured at 37° C. in T25 tissue culture flasks containing 9 ml DMEM (Dulbecco's Modified Eagle Medium, Sigma-Aldrich), lacking phenol red but containing 4500 mg/I glucose, supplemented with 10% foetal calf serum, 2 mM L-glutamine, 200 U/ml penicillin, 200 μg/ml streptomycin (all Sigma-Aldrich) in an atmosphere of 5% CO2 for 24 hr before any further experimental manipulations proceeded. Negligible parasite death occurred in this media during the 24 hr culturing period. Following this, schistosomula were aliquoted into black-sided, flat-bottom (optically clear), 96-well microtiter plates (Fisher Scientific) in 200 μl media or black-sided, flat-bottom (optically clear), 384-well microtiter plates (Matrix) in 40 μl media.
Stock solutions of all compounds were made up at 1 mM in appropriate solvents and stored at −80° C. All compounds were added to black-sided, flat-bottom (optically clear), 96-well microtiter plates containing schistosomula (1000 parasites/well in triplicate) at 10 μM concentrations. Schistosomula were cultured (as already indicated; 37° C., 5% CO2) in the presence of each compound for 24 hr before viability levels were assessed.
After the 24 hr culturing period in the presence of test compounds, and prior to addition of fluorescent dyes, all schistosomula were washed three times to remove test compound and culture media supplements. Each wash consisted of centrifuging microtiter plates containing schistosomula at 100×g for 5 min, removal of half the old culture media and replacement with an equal quantity of fresh DMEM (lacking phenol red). After washing the parasites, […] and FDA were simultaneously added to each well of the microtiter plate to obtain a final concentration of 2.0 μg/ml and 0.5 μg/ml respectively.
The 96-well microtiter plates, now containing fluorescently labeled parasites, were subsequently loaded into a BMG Labtech Polarstar Omega plate reader containing appropriate filters for the simultaneous detection of PI (544 nm excitation/620 nm emission) and FDA (485 nm excitation/520 nm emission). All fluorescent values were obtained with the plate reader incubator set at 37° C. to ensure efficient esterase conversion of FDA to fluorescein within live schistosomula. The plate reader automatically sets the photo multiplier tube (PMT) gain for each fluorescent dye and this may slightly vary between experiments. Inclusion of appropriate control samples (live and dead schistosomula) compensates for any inter-plate variations in gain settings.
All data were exported into Microsoft Excel for organization and into Minitab (Version 14) for statistical analyses. A One-Way Analysis of Variance (ANOVA) followed by post hoc testing with Fisher's least significant difference (LSD) was used to detect statistical differences between treatments. […].
Numbers of live and dead schistosomula in each well of a microtiter plate were calculated using the following equations: […]

schistosomula = settings: previously published activities; cited from earlier work
[2] = system: Haemonchus contortus L3 larvae; experiment: Haemonchus contortus FTIR; format: cell-based; settings: worm samples; 3 mg/ml in DMSO added at 1/100; 24 hours at 37° C.
Method: 1. Haemonchus contortus L3 larvae were exsheated in 5% sodium hypochlorite for 10 minutes.
2. Following exsheathment the larvae were pelleted by centrifugation at 200×g for 2 minutes, the supernatant was removed and replaced with 1×PBS. This wash step was repeated twice to remove any traces of sodium hypochlorite then resuspended in DMEM containing L-glutamine and pen-strep but lacking in phenol red.
3. The larvae were aliquoted into a 384 well plate at approx. 100 larvae per well.
4. Compounds to be tested (aldicarb, levamisole and ivermectin) were made up at 3 mg/ml in DMSO then added to test wells at 1/100.
5. An identical quantity of DMSO, lacking any compound, was added to control wells.
6. The larvae were cultured for 24 hours at 37° C. following the addition of compounds (see FIG. 11). Wells containing media and compounds, but lacking in larvae, were also set up as controls for background.
For FTIR, two samples were run from each well containing larvae. The first consisted of 10 μl of supernatant taken from the top of the well without any disturbance. The second consisted of 10 μl containing worms and any sediment stirred up from the bottom of the well. A third 10 μl sample of media containing compounds but no larvae was also run for elimination of drug chemistry. Samples were dried at 50° C. for 45 minutes to prevent interference from water before being loaded into the FTIR machine.
Collected spectra were analysed using PyChem software. Two analyses were run for all data: principle components analysis (PCA; which compresses all of the data into smaller, discreet (2) components without there being any assumptions made) and discriminate function analysis (DFA; which takes information provided about class structure to run an algorithm to maximise distances between groups (different drug treatments) and minimise distances within groups (replicates of the same drug treatment)). The circles on the DFA graphs represent mean group centres i.e. treatments that segregate with confidence intervals of 95% (inner circle) and 99% (outer circle).

[3] = system: Schistosoma mansoni schistosomula; experiment: microscopic examination of compound-treated schistosomula; format: cell-based; settings: 24 hr
Method: Live and heat killed schistosomula stained with optimal concentrations (empirically derived from Jones K, Senft J (1985) An improved method to determine cell viability by simultaneous staining with fluorescein diacetate-propidium iodide. The Journal of Histochemistry and Cytochemistry 33: 77-79) of propidium iodide (PI, 2.0 μg/ml; Sigma-Aldrich), fluorescein diacetate (FDA, 0.5 μg/ml; Sigma-Aldrich) or both fluorophores were visualized at ×100 magnification using a Leica Axioplan microscope equipped with FITC (494 excitation) and Rhodamine (536 excitation) filters and a mercury vapor light source. A Hamamatsu CA74295 camera with Wasabi Version 1.4 software was used to capture photographic images of stained schistosomula.
Schistosomula, co-incubated with test compounds, were fluorescently visualized as above or unstained at ×100 magnification using an Olympus CK2 inverted microscope equipped with a stage extension plate and specimen holder for handling microtiter plates. A Kodak EasyShare DX7440 digital camera was used to capture images of unstained schistosomula.

[4] = system: Schistosoma mansoni schistosomula; experiment: dual-fluorescence (PI/FDA) schistosomula viability assay; format: cell-based
[5] = system: in vitro cultured, mechanically-transformed schistosomula; settings: 10 μM, 24 hr after treatment; cited from earlier work

| Compound | schistosomula viability by dual-fluorescent viability assay [1] | previously described effect on schistosomula phenotype (schistosomula) | further results |
| --- | --- | --- | --- |
| C[C@@H]1[C@H](O)[C@@H](C)/C=C/C=C/C=C/C=C/C=C/C=C/C=C/[C@H](O[C@@H]2O[C@H](C)[C@@H](O)[C@H](N)[C@@H]2O)C[C@@H]2O[C@](O)(C[C@@H](O)C[C@@H](O)[C@H](O)CC[C@@H](O)C[C@@H](O)CC(=O)O[C@H]1C)C[C@H](O)[C@H]2C(=O)O [amphotericin b] | induced measurable death | induce schistosomula mortality |  |
| c1ccc([C@H]2CN3CCSC3=N2)cc1 [levamisole] |  |  | FTIR separation of treatment from DMSO control, worms [2]: good separation |
| Clc1ccc(COC(Cn2ccnc2)c2ccc(Cl)cc2Cl)c(Cl)c1 (stereo not shown) [miconazole nitrate] | did not affect schistosomula viability | shape alteration (‘rounded’ phenotype) |  |
| O=C(Nc1ccc([N+](=O)[O-])cc1Cl)c1cc(Cl)ccc1O [niclosamide] | fluorescent viability measurements similar to those derived from untreated parasites | induce schistosomula mortality |  |
| CC(=O)OC[C@H]1O[C@@H]([S-])[C@H](OC(C)=O)[C@@H](OC(C)=O)[C@@H]1OC(C)=O.CCP(CC)CC.[Au+] [auranofin] |  |  | PI/FDA staining of schistosomula by epifluorescent microscopy ([3]; 1 μM auranofin): displayed cells that were stained with either PI or FDA throughout the body; death confirmed by microscopic examination of schistosomula ([3]; 10 μM): 100%; auranofin-mediated mortality compared to vehicle treated (DMSO) or untreated parasites ([4]; 5 μM, 2.5 μM and 1.25 μM, 24 hr): Statistically-significant; anti-schistosomula effect (viability per drug concentration) ([4]; 24 hours post-treatment): clear and titratable anti-schistosomula effect; anti-schistosomula LD50 activity ([4]; auranofin titration series, fluorescent-based microtiter plate quantification, 24 hr): 0.82 µM; lethality to schistosomula estimated by light microscopy [5]: 100% |
| COC(=O)[C@H]1[C@H]2C[C@@H]3c4[nH]c5cc(OC)ccc5c4CCN3C[C@H]2C[C@@H](OC(=O)/C=C/c2cc(OC)c(OC)c(OC)c2)[C@@H]1OC [rescinnamine] | none showed strong decreases in viability |  |  |
| ivermectin |  |  | FTIR separation of treatment from DMSO control, worms [2]: good separation |
| Cc1cc(C2CCCCC2)n(O)c(=O)c1 [ciclopirox] | none showed strong decreases in viability |  | schistosomula phenotype by microscopic examination ([3]; 10 μM): shape alterations in schistosomula phenotype |
| CC[C@@H](C(=O)[C@@H](C)[C@@H](O)[C@H](C)[C@@H]1O[C@@H]([C@@H](CC)C(=O)O)CC[C@@H]1C)[C@H]1O[C@]2(C=C[C@@H](O)[C@]3(CC[C@@](C)([C@H]4CC[C@](O)(CC)[C@H](C)O4)O3)O2)[C@H](C)C[C@@H]1C [sodium salinomycin] | fluorescent viability measurements similar to those derived from untreated parasites | induce schistosomula mortality | schistosomula phenotype by microscopic examination ([3]; 10 μM): strongly FDA positive (with some PI positive cells) (FIG. 6C), dark and granular (FIG. 6H), but motile |
| CC(C)=CCC[C@]1(C)C=Cc2c(O)c3c(c(CC=C(C)C)c2O1)O[C@]12C(=C[C@@H]4C[C@H]1C(C)(C)O[C@@]2(C/C=C(/C)C(=O)O)C4=O)C3=O [gambogic acid] | induced measurable death | induce schistosomula mortality |  |
| CN(C)CCCN1c2ccccc2Sc2ccc(Cl)cc21 [chlorpromazine hydrochloride] | did not affect schistosomula viability | induce schistosomula over-activity |  |
| CC(C)COCC(CN(Cc1ccccc1)c1ccccc1)N1CCCC1 (stereo not shown) [bepridil] | none showed strong decreases in viability |  |  |
| O=C(C1CCCCC1)N1CC(=O)N2CCc3ccccc3C2C1 (stereo not shown) [praziquantel] | did not affect schistosomula viability; also recorded: does not kill in vitro | shape alteration (‘rounded’ phenotype) | schistosomula phenotype by microscopic examination ([3]; 10 μM): strong rounded phenotype |
| CNC(=O)O/N=C/C(C)(C)SC [aldicarb] |  |  | FTIR separation of treatment from DMSO control, worms [2]: good separation |
| CC[C@]1(O)C[C@@H]2CN(CCc3c([nH]c4ccccc34)[C@@](C(=O)OC)(c3cc4c(cc3OC)N(C)[C@H]3[C@@](O)(C(=O)OC)[C@H](OC(C)=O)[C@]5(CC)C=CCN6CC[C@]43[C@@H]65)C2)C1 [vinblastine] | none showed strong decreases in viability |  |  |
| CNCCC(Oc1ccc(C(F)(F)F)cc1)c1ccccc1 (stereo not shown) [fluoxetine hydrochloride] | did not affect schistosomula viability | induce schistosomula over-activity |  |
| Nc1[nH]c(=O)ncc1F [flucytosine] | none showed strong decreases in viability |  |  |
| C[C@@](Cc1ccc(O)c(O)c1)(NN)C(=O)O [carbidopa] | none showed strong decreases in viability |  |  |
